Data taken from patent US6762170B1, “2-(purin-9-yl)-tetrahydrofuran-3,4-diol derivatives” (SmithKlineBeecham Corporation, priority 1998, dated 2004).
Where a name gives a salt, the structure may show the parent alone.

Columns and labels:
Type in all cases: cell-based
Adenosine 2a receptor = target: T1, Adenosine 2a receptor (Homo sapiens, UniProt P29274); test: Agonist activity against adenosine 2a receptor subtype (CHO cells, cAMP response element/SPAP reporter); settings: EC50 ratio to NECA; transfected CHO cells, basal cAMP reflected by SPAP
T1 construct: expressed in transfected cells; host or cells: Chinese hamster ovary (CHO) cells, co-transfected with a CRE-SPAP reporter
T1 sequence (P29274 whole entry): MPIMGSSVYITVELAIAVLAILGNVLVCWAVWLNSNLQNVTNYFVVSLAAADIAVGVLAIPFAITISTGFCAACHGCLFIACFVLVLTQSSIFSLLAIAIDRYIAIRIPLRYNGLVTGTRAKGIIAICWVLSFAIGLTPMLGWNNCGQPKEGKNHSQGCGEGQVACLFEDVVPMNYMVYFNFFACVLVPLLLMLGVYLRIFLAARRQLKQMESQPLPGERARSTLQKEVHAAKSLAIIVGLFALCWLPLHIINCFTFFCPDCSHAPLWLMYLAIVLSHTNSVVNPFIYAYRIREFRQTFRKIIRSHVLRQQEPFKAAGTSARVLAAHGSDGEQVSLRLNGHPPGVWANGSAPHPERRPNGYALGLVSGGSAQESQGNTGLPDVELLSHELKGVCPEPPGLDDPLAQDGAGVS
Procedure, shortened: (§1)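 CHO cells expressed the human receptor plus a cAMP response element–driven SPAP reporter. Agonism was measured as SPAP change from forskolin-enhanced cAMP for A1 and A3, and from basal cAMP for A2a. EC50 is expressed as a ratio to that of NECA.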

Adenosine 3 receptor = target: T2, Adenosine 3 receptor (Homo sapiens, UniProt P0DMS8); test: Agonist activity against adenosine 3 receptor subtype (CHO cells, forskolin-enhanced cAMP, SPAP reporter); settings: EC50 ratio to NECA; transfected CHO cells, forskolin-enhanced cAMP reflected by SPAP
T2 construct: expressed in transfected cells; host or cells: Chinese hamster ovary (CHO) cells, co-transfected with a CRE-SPAP reporter
T2 sequence (P0DMS8 1-318): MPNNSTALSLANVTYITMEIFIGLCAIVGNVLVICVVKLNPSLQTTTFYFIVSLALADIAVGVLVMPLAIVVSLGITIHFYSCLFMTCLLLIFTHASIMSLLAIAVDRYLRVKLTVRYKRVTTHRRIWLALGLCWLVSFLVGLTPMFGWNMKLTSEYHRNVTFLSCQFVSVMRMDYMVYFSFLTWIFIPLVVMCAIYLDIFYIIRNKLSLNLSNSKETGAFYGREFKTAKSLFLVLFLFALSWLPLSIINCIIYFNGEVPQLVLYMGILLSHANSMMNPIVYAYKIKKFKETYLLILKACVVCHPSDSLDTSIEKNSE
Procedure, shortened: as §1

Adenosine 1 receptor = target: T3, Adenosine 1 receptor (Homo sapiens, UniProt P30542); test: Agonist activity against adenosine 1 receptor subtype (CHO cells, forskolin-enhanced cAMP, SPAP reporter); settings: EC50 ratio to NECA; transfected CHO cells, forskolin-enhanced cAMP reflected by SPAP
T3 construct: expressed in transfected cells; host or cells: Chinese hamster ovary (CHO) cells, co-transfected with a CRE-SPAP reporter
T3 sequence (P30542 1-326): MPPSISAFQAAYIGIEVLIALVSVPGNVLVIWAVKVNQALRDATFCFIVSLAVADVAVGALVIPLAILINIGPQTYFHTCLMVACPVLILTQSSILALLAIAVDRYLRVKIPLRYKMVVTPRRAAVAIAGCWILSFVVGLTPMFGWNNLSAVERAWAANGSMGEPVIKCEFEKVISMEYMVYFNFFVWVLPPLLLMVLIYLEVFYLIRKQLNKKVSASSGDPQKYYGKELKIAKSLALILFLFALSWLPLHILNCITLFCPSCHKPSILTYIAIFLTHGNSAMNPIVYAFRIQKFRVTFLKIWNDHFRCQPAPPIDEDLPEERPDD
Procedure, shortened: as §1

Row | Molecule | A2a (EC50 values as a ratio of that of NECA) (Adenosine 2a receptor) | A3 (EC50 values as a ratio of that of NECA) (Adenosine 3 receptor) | A1 (EC50 values as a ratio of that of NECA) (Adenosine 1 receptor)
1 | CCc1cc(C2OC(n3cnc4c(NC5CCCC5)nc(NCCN5CCCCC5)nc43)C(O)C2O)on1 [Example 8, (2S,3S,4R,5R)-2-(3-Ethyl-isoxazol-5-yl)-5-[6-(cyclopentylamino)-2-(2-piperidin-1-yl)-ethylamino)-purin-9-yl]-tetrahydro-furan-3,4-diol diformate] | 0.67 | >310 | 49.1
2 | CCc1cc(C2OC(n3cnc4c(NC5CCN(C(C)=O)CC5)nc(NC5CCC(N)CC5)nc43)C(O)C2O)on1 (stereo not drawn) [Example 29, 1-(4-{2-(trans-4-Amino-cyclohexylamino)-9-[5S-(3-ethyl-isoxazol-5-yl)-3R,4S-dihydroxy-tetrahydro-furan-2R-yl]-9H-purin-6-ylamino}-piperidin-1-yl)-ethanone diformate] | 5.03 | >298 | 27.24
3 | (2R,3R,4S,5S)-2-[2-Ethylamino-6-(3-iodo-benzylamino)-purin-9-yl]-5-(3-ethyl-isoxazol-5-yl)-tetrahydro-furan-3,4-diol formate [Example 66] | 8.32 | >262 | 189.98
4 | CCc1cc([C@H]2O[C@@H](n3cnc4c(NC(CC)CC)nc(NC5CCOCC5)nc43)[C@H](O)[C@@H]2O)on1.O=CO [Example 48, (2R,3R,4S,5S)-2-[2-(4-tetrahydropyranyl-amino)-6-(1-ethyl-propylamino)-purin-9-yl]-5-(3-ethyl-isoxazol-5-yl)-tetrahydro-furan-3,4-diol formate] | 11.48 | >363 | 177.71
5 | CCc1cc(C2OC(n3cnc4c(NCc5cccc(I)c5)nc(NCCc5cn(C)cn5)nc43)C(O)C2O)on1.O=CO.O=CO [Example 20, (2S,3S,4R,5R)-2-(3-Ethyl-isoxazol-5-yl)-5-{6-(3-iodo-benzylamino)-2-[2-(1-methyl-1H-imidazol-4-yl)-ethylamino]-purin-9-yl}-tetrahydro-furan-3,4-diol diformate] | 2.04 | >267 | 310.9
6 | CCc1cc(C2OC(n3cnc4c(NC5CCOCC5)nc(NC(CO)Cc5ccccc5)nc43)C(O)C2O)on1 [Example 15, (2S,3S,4R,5R)-2-(3-Ethyl-isoxazol-5-yl)-5-[2-(1S-hydroxymethyl-2-phenyl-ethylamino)-6-(tetrahydro-pyran-4-ylamino)-purin-9yl]-tetrahydro-furan-3,4-diol formate] | 3.66 | >146 | 26.05
7 | CCc1cc(C2OC(n3cnc4c(NC(CO)Cc5ccccc5)nc(NCCN5CCCC5)nc43)C(O)C2O)on1 [Example 63, (2S,3S,4R,5R)-2-(3-Ethyl-isoxazol-5-yl)-5-[6-(1S-hydroxymethyl-2-phenyl-ethylamino)-2-(2-pyrrolidin-1-yl-ethylamino)-purin-9-yl]-tetrahydro-furan-3,4-diol diformate] | 10.57 | >262 | 148.43
8 | CCc1cc(C2OC(n3cnc4c(NC(CC)CC)nc(NCCc5ccccn5)nc43)C(O)C2O)on1 [Example 37, (2S,3S,4R,5R)-2-(3-Ethyl-isoxazol-5-yl)-5-[61-ethyl-propylamino)-2-(2-pyridin-2-yl-ethylamino)-purin-9-yl]-tetrahydro-furan-3,4-diol diformate] | 2.65 | >207 | 136.56
